Data set [1] can be described thus: Pharmacokinetics in CD-1 mice, IV. The data set is classed as in vivo. Conditions: for Auclast / Cmax / MRT inf / Tmax / half-life / AUC(0-t) / clearance / Vd: intravenously 5 mg/kg; for blood–brain barrier crossing (in words) / clearance (in words): IV 5 mg/kg; for Cmax / MRT inf / Tmax / half-life / AUC(0-t) / clearance / Vd: male, mouse, iv; for half-life: read-out: Terminal t1/2; for Vd: read-out: Vss. The protocol: Analysis of pharmacokinetic parameters of 18A and 18B was performed by the Preclinical Pharmacology Core Lab (UT Southwestern Medical Center). Animal work described in this manuscript has been approved and conducted under the oversight of the UT Southwestern Institutional Animal Care and Use Committee and were carried out in accordance with relevant guidelines and regulations. UT Southwestern uses the “Guide for the Care and Use of Laboratory Animals” when establishing animal research standards. All methods are reported in accordance with ARRIVE guidelines. Compounds were suspended in 10% DMSO/20% PEG400/70% (30% HPβCD in water) at 0.484 mg/mL (18A) or at 0.5 mg/mL (18B). Compounds were administered to male CD1 mice (Charles River Laboratories, Wilmington, MA) IV via the tail vein at 5 mg/kg (0.30 mL dose volume for 18A, 0.35 mL dose volume for 18B). Mice were randomly assigned to time point groups and all investigators were aware of these assignments. After inhalation overdose of CO2, blood and tissues were collected from three mice per timepoint, at 5, 15, 30, 60, 240, 360, and 480 min post dosing, such that a mean concentration and standard deviation about the mean could be reported. Blood and tissues were also collected from mice dosed with Vehicle only at 480 min. Blood was collected using the anticoagulant ACD (acidified citrate dextrose) and plasma was isolated from the blood by centrifugation at 4 °C, 9600 × g for 10 min. After rinsing with PBS, tissues were weighed, snap-frozen in liquid nitrogen and stored at − 80 °C until processing. Brain was homogenized in a three-fold volume of PBS (weight by volume). Plasma and brain homogenates were extracted using a two-fold volume of methanol containing 0.15% formic acid and 37.5 ng/ml of an internal standard, n-benzylbenzamide (Sigma, St. Louis, MO). Samples were vortexed for 15 s, incubated at RT for 10 min and then centrifuged at 16,100 × g for 5 min at 4 °C. The supernatant was spun a second time and then analyzed by LC–MS/MS using a Sciex (Framingham, MA) 4000QTRAP® (positive ESI, multiple-reaction monitoring mode) after separation on an Agilent (Santa Clara, CA) C18 XDB column (5 micron packing, 50 × 4.6 mm size). The following separation gradient was used (Buffer A: water with 0.1% formic acid; Buffer B: MeOH with 0.1% formic acid): 0–1 min 5% B, 1–1.5 min gradient to 100% B, 1.5–3 min 100% B, 3–3.2 min gradient to 5% B, 3.2–4.5 min 5% B. For 18A, the transition (m/z) of 336.0/305.0 was monitored (retention time: 2.08 min); for 18B, the transition (m/z) of 336.1/169.0 was monitored (retention time: 2.09 min). The transition 212.1/91.1 (retention time 2.05 min) was monitored for the internal standard, n-benzylbenzamide. Tissues and plasma from untreated mice were used as controls to establish background noise for LC–MS/MS analysis of compound levels. Pharmacokinetic parameters were calculated using sparse sampling and the noncompartmental analysis tool in WinNonlin (Certara Corp, Princeton, NJ) for plasma and brain. Because mice were not perfused prior to collection of brain, the amount of compound estimated to be in the vasculature of the brain was subtracted using the measured plasma concentration and literature values for the volume of residual blood (30 µl/g tissue) in the brain Kwon[102].

Data set [2] concerns PGRN protein levels. Nature of the data set: PGRN quantification (Jess) in GRN R493X/+ NPCs. To be noted: 24 h. The data set is classed as cell-based, human. The protocol:
(§1) PGRN capillary gel electrophoresis experiments were performed using Jess (Bio-Techne) and data were processed and analyzed using Compass for Simple Western software (version 6.0). Runs were conducted using EZ Standard Pack 1 12–230 kDa (Bio-Techne PS-ST01EZ-8), 12–230 kDa pre-filled plates (PS-PP03), 12–230 kDa separation module (SMW004), anti-rabbit HRP detection (DM-001), RePlex (RP-001), and total protein detection modules (DM-TP01, biotin labeling reagent 042-973) according to the manufacturer’s instructions, and with anti-PGRN primary (Abcam ab208777) diluted 1:50 in milk-free antibody dilution buffer (043–524). The following run settings were used for each experiment: separation time: 25 min, separation voltage: 375 V, RePlex purge time: 30 min, biotin labeling time: 30 min, antibody diluent time: 5 min, primary antibody time: 30 min, secondary antibody time: 30 min, total protein HRP time: 30 min. All intensity quantifications are normalized to the total protein assay quantification unless otherwise indicated.
(§2) For GRN^R493^X/+ NPCs, cells were grown to confluency in 6-well plates according to the above NPC culturing procedure. To each well was directly added 2 µL of 100 µM panobinostat, […], or DMSO only to produce final in-well concentrations of 100 nM or 1 µM, respectively (0.1% DMSO final concentration). […]

Another data set concerns the target recombinant BRD4 BD1. Details: method as in PMID 31969702, PMID 32193360, doi:10.1002/anse.202200020. To be noted: read-out: KD against recombinant BRD4 BD1; cited from earlier work.
In data set [3] the test system is PGRN protein levels. Nature of the data set: PGRN quantification (Jess) in GRN R493X/+ 14-day differentiated neurons. The data set is classed as cell-based, human. Conditions: GRN R493X/+ 14-day growth factor differentiated neurons, 24 h. The protocol: as §1, §2
The target of a further data set is recombinant BRD4 BD2. Details: method as in PMID 31969702, PMID 32193360, doi:10.1002/anse.202200020. To be noted: read-out: KD against recombinant BRD4 BD2; cited from earlier work.
The next data set deals with BRD4 protein levels. Nature of the data set: Immunoblotting of BRD4 in human NPCs. The data set is classed as cell-based. To be noted: co-treatment with MLN-4924 (1 µM) and mivebresib (1 µM).

Structures are written as SMILES. Like-named read-outs stand apart in the source and are kept apart here.

Description for BRD4 protein levels: Gels were then transferred onto PVDF membranes (Immobilon-P, Millipore IPVH00010). […] Membranes were washed with TBST for 1 h, and developed with the chemiluminescence reagents used above.
NPCs were cultured normally in 6-well plates as described previously. […] Plates returned to the incubator. […] Plates returned to the incubator. After 4 h, to the indicated wells is directly added 1 µL 2 mM mivebresib (MedChem Express HY-100015) in DMSO for a final concentration of 1 µM, or 1 µL DMSO. All plates were returned to the incubator overnight. […] 200 µL of supernatant was then transferred to a fresh, labeled Eppendorf rube, which was then stored at − 20 °C prior to further analysis. Sample concentration was quantified using the BCA assay as described above, and normalized to 250 µg/mL in M-PER lysis buffer prior to PGRN quantification using the Jess.

In the case of `Cn1cc(-c2cccnc2Oc2ccc(F)cc2)c2cc[nH]c2c1=O` [Compound 18A, 4-(2-(4-fluorophenoxy)pyridin-3-yl)-6-methyl-1H-pyrrolo[2,3-c]pyridin-7(6H)-one], in data set [1] (Brain), the Auclast worked out at 63285 ng·min/g, the peak level (Cmax) was 2970 ng/g, the MRT inf was 16.7 min and the Tmax was 5 min. For the same compound, in data set [1] (Brain), the half-life came to 30 min. For the same compound, in data set [1], the “blood–brain barrier crossing (in words)” value is recorded as “readily cross the blood–brain barrier” and the “clearance (in words)” value is “cleared quite rapidly”. In addition, in data set [1] (Plasma), the AUC(0-t) was 658 ng·h/mL, the Cmax worked out at 1780 ng/mL, the MRT inf was 17.9 min and the Tmax is 5 min. Moreover, in data set [1] (Plasma), the clearance is 3.67 mL/min, the half-life is 27 min and the Vd came to 0.067 L.
As for `CCS(=O)(=O)Nc1ccc(Oc2ccc(F)cc2F)c(-c2cn(C)c(=O)c3[nH]ccc23)c1` [mivebresib], the PGRN protein levels result in the data set on PGRN protein levels [2] and in the data set on PGRN protein levels [3] was “significantly increased PGRN protein levels” each time. Besides, the Kd on recombinant BRD4 BD1 was no more than 2.8 nM; at recombinant BRD4 BD2, no more than 2 nM. In addition, the “enhancement of BRD4 protein levels” value in the data set with BRD4 protein levels is recorded as “~ fourfold”.
In the case of `Cn1ccc2c(-c3cccnc3Oc3ccc(F)cc3)c[nH]c2c1=O` [Compound 18B, 3-[2-(4-fluorophenoxy)pyridin-3-yl]-6-methyl-1,6-dihydro-7H-pyrrolo[2,3-c]pyridin-7-one], in data set [1] (Brain), the Auclast stood at 31579 ng·min/g, the concentration peaked (Cmax) at 1690 ng/g, the MRT inf is 17.6 min and the Tmax was 5 min. The half-life in data set [1] (Brain) was determined as 73 min. In addition, in data set [1], the “blood–brain barrier crossing (in words)” value is “readily cross the blood–brain barrier” and the “clearance (in words)” value is “cleared quite rapidly”. For the same compound, in data set [1] (Plasma), the AUC(0-t) was 511 ng·h/mL, the Cmax was 1620 ng/mL, the MRT inf was 25.8 min and the Tmax is 5 min. In addition, in data set [1] (Plasma), the clearance was determined as 5.61 mL/min, the half-life was 140 min and the Vd is 0.145 L.

The values are drawn from PMC11032351, “Epigenetic modulation through BET bromodomain inhibitors as a novel therapeutic strategy for progranulin-deficient frontotemporal dementia” (Scientific Reports, 2024).
